# Laboratory results taken from the NIST ThermoML archive (doi:10.1016/j.jct.2019.03.040).
# ± gives the expanded uncertainty stated by the source.
# Experiment: molar heat capacity at constant pressure
# Details: 101.33 kPa, Liquid, Small sample (50 mg) DSC
smiles,measurement,setting,value
CCCCOC(=O)CCC(C)=O [butyl levulinate],molar heat capacity at constant pressure,336.16 K,344.27 ± 8.4 J/K/mol
same,molar heat capacity at constant pressure,336.66 K,345.65 ± 8.4 J/K/mol
same,molar heat capacity at constant pressure,337.16 K,345.3 ± 8.4 J/K/mol
same,molar heat capacity at constant pressure,337.66 K,345.3 ± 8.4 J/K/mol
same,molar heat capacity at constant pressure,338.16 K,346.34 ± 8.4 J/K/mol
same,molar heat capacity at constant pressure,338.66 K,346.51 ± 8.4 J/K/mol
same,molar heat capacity at constant pressure,339.16 K,345.82 ± 8.4 J/K/mol
same,molar heat capacity at constant pressure,339.66 K,346.34 ± 8.4 J/K/mol
same,molar heat capacity at constant pressure,340.16 K,347.03 ± 8.4 J/K/mol
same,molar heat capacity at constant pressure,340.66 K,346.17 ± 8.4 J/K/mol
same,molar heat capacity at constant pressure,341.16 K,346.68 ± 8.4 J/K/mol
same,molar heat capacity at constant pressure,341.66 K,346.17 ± 8.4 J/K/mol
same,molar heat capacity at constant pressure,342.16 K,347.03 ± 8.4 J/K/mol
same,molar heat capacity at constant pressure,342.66 K,346.68 ± 8.4 J/K/mol
same,molar heat capacity at constant pressure,343.16 K,347.72 ± 8.4 J/K/mol
same,molar heat capacity at constant pressure,343.66 K,347.37 ± 8.4 J/K/mol
same,molar heat capacity at constant pressure,344.16 K,347.37 ± 8.4 J/K/mol
same,molar heat capacity at constant pressure,344.66 K,347.54 ± 8.4 J/K/mol
same,molar heat capacity at constant pressure,345.16 K,348.06 ± 8.6 J/K/mol
same,molar heat capacity at constant pressure,345.66 K,348.23 ± 8.6 J/K/mol
same,molar heat capacity at constant pressure,346.16 K,347.89 ± 8.4 J/K/mol
same,molar heat capacity at constant pressure,346.66 K,348.58 ± 8.6 J/K/mol
same,molar heat capacity at constant pressure,347.16 K,348.23 ± 8.6 J/K/mol
same,molar heat capacity at constant pressure,347.66 K,349.09 ± 8.6 J/K/mol
same,molar heat capacity at constant pressure,348.16 K,348.92 ± 8.6 J/K/mol
same,molar heat capacity at constant pressure,348.66 K,349.27 ± 8.6 J/K/mol
same,molar heat capacity at constant pressure,349.16 K,349.27 ± 8.6 J/K/mol
same,molar heat capacity at constant pressure,349.66 K,349.78 ± 8.6 J/K/mol
same,molar heat capacity at constant pressure,350.16 K,349.78 ± 8.6 J/K/mol
same,molar heat capacity at constant pressure,350.66 K,350.13 ± 8.6 J/K/mol
same,molar heat capacity at constant pressure,351.16 K,349.95 ± 8.6 J/K/mol
same,molar heat capacity at constant pressure,351.66 K,349.61 ± 8.6 J/K/mol
same,molar heat capacity at constant pressure,352.16 K,350.13 ± 8.6 J/K/mol
same,molar heat capacity at constant pressure,352.66 K,348.58 ± 8.6 J/K/mol
same,molar heat capacity at constant pressure,353.16 K,348.23 ± 8.6 J/K/mol
same,molar heat capacity at constant pressure,353.66 K,348.58 ± 8.6 J/K/mol
same,molar heat capacity at constant pressure,354.16 K,349.44 ± 8.6 J/K/mol
same,molar heat capacity at constant pressure,354.66 K,349.95 ± 8.6 J/K/mol
same,molar heat capacity at constant pressure,355.16 K,349.95 ± 8.6 J/K/mol
same,molar heat capacity at constant pressure,355.66 K,350.64 ± 8.6 J/K/mol
same,molar heat capacity at constant pressure,356.16 K,350.13 ± 8.6 J/K/mol
same,molar heat capacity at constant pressure,356.66 K,350.13 ± 8.6 J/K/mol
same,molar heat capacity at constant pressure,357.16 K,351.5 ± 8.6 J/K/mol
same,molar heat capacity at constant pressure,357.66 K,350.99 ± 8.6 J/K/mol
same,molar heat capacity at constant pressure,358.16 K,351.5 ± 8.6 J/K/mol
same,molar heat capacity at constant pressure,358.66 K,351.68 ± 8.6 J/K/mol
same,molar heat capacity at constant pressure,359.16 K,351.85 ± 8.6 J/K/mol
same,molar heat capacity at constant pressure,359.66 K,351.85 ± 8.6 J/K/mol
same,molar heat capacity at constant pressure,360.16 K,352.02 ± 8.6 J/K/mol
same,molar heat capacity at constant pressure,360.66 K,351.68 ± 8.6 J/K/mol
same,molar heat capacity at constant pressure,361.16 K,352.37 ± 8.6 J/K/mol
same,molar heat capacity at constant pressure,361.66 K,353.05 ± 8.6 J/K/mol
same,molar heat capacity at constant pressure,362.16 K,352.71 ± 8.6 J/K/mol
same,molar heat capacity at constant pressure,362.66 K,352.88 ± 8.6 J/K/mol
same,molar heat capacity at constant pressure,363.16 K,352.02 ± 8.6 J/K/mol
same,molar heat capacity at constant pressure,363.66 K,352.71 ± 8.6 J/K/mol
same,molar heat capacity at constant pressure,364.16 K,353.23 ± 8.6 J/K/mol
same,molar heat capacity at constant pressure,364.66 K,353.57 ± 8.6 J/K/mol
same,molar heat capacity at constant pressure,365.16 K,353.05 ± 8.6 J/K/mol
same,molar heat capacity at constant pressure,365.66 K,353.4 ± 8.6 J/K/mol
same,molar heat capacity at constant pressure,366.16 K,353.4 ± 8.6 J/K/mol
same,molar heat capacity at constant pressure,366.66 K,354.6 ± 8.6 J/K/mol
same,molar heat capacity at constant pressure,367.16 K,353.57 ± 8.6 J/K/mol
same,molar heat capacity at constant pressure,367.66 K,353.57 ± 8.6 J/K/mol
same,molar heat capacity at constant pressure,368.16 K,354.09 ± 8.6 J/K/mol
same,molar heat capacity at constant pressure,368.66 K,353.92 ± 8.6 J/K/mol
same,molar heat capacity at constant pressure,369.16 K,353.57 ± 8.6 J/K/mol
same,molar heat capacity at constant pressure,369.66 K,353.4 ± 8.6 J/K/mol
same,molar heat capacity at constant pressure,370.16 K,354.95 ± 8.8 J/K/mol
same,molar heat capacity at constant pressure,370.66 K,354.78 ± 8.6 J/K/mol
same,molar heat capacity at constant pressure,371.16 K,354.09 ± 8.6 J/K/mol
same,molar heat capacity at constant pressure,371.66 K,354.78 ± 8.6 J/K/mol
same,molar heat capacity at constant pressure,372.16 K,355.29 ± 8.8 J/K/mol
same,molar heat capacity at constant pressure,372.66 K,355.81 ± 8.8 J/K/mol
same,molar heat capacity at constant pressure,373.16 K,354.78 ± 8.6 J/K/mol
same,molar heat capacity at constant pressure,373.66 K,355.81 ± 8.8 J/K/mol
same,molar heat capacity at constant pressure,374.16 K,355.98 ± 8.8 J/K/mol
